“Also recorded” adds a separate entry of the source.

The target in data set [1] is CRBN-DDB1 (cereblon DNA damage-binding protein 1 complex) (Homo sapiens, UniProt Q96SW2). As to the kind of experiment: Fluorescence polarization (FP) CRBN-binding assay, direct titration. To be noted: 1 nM 4c titrated with CRBN-DDB1, triplicates, read-out: dissociation constant (Kd). An excerpt:
Medicinal chemistry scope was expanded by the synthesis of a few representative linkers, which were elaborated to modalities adorned with a cellular marker, an E3 ligase motif, and a free alcohol function. […] Initially, treatment with Pd(dba)2, dppb, and thiosalicylic acid removed the allyl protecting group to give 2m in 39% yield. The resulting secondary amine was coupled to a bodipy-containing carboxylic acid 3([25]) to afford the Boc-protected linker 4a (82% yield, Scheme 3). Simple Boc removal with acid exposed the secondary amine 4b intermediate, which was coupled to an acid comprising E3 ligand affording 4c. Such modalities have a free “handle” that could be added to a POI-binding ligand of choice, e.g., by substitution chemistry, esterification, or ether formation. […]
(§1) Following incubation, 100 μL per well Promega Nano -Glo HiBiT lytic detection reagent mix (Promega Nano -Glo HiBiT Lytic Detection System #N3050), prepared according to the manufacturer´s instructions in the kit, were added. […] Luminescence was measured using plate reader (BMG L abtech PHERA star).
(§2) Luminescence levels in the treatment wells were normalised to DMSO-treated samples and plotted as percentage of DMSO control in GraphPad Prism (10.2.3).Western blot 5x10^5 HEK293 CRISPR HIBIT BRD4 cells were seeded into 6-well plates 24 hours before treatment. […]
(§3) Fluorescence Polarization (FP). […]

Data set [2] addresses T1, BRD4 (Homo sapiens, UniProt O60885).
T1 construct: endogenous in cells; host or cells: HEK293 CRISPR HiBiT BRD4 (knock-in)
Description: BRD4 degradation assay, Promega Nano-Glo HiBiT lytic assay. The class given is cell-based. To be noted: HEK293 CRISPR HiBiT BRD4 cell line. Background: HiBiT is a short tag that completes a luciferase, so light tracks the accessible tagged protein.
Description: Data plotted are average ± SD of n = 3 biological replicates.
HEK293 CRISPR HIBIT BRD4 cells were seeded at 5 X 10^5 cells per well in culture medium into
Plates were incubated at 37 °C, 5% CO2 in a humidiﬁed incubator overnight. Compounds (10 mM stock in DMSO) were diluted to a half-log scale and added to the cells. Plates were further incubated at 37 °C for 18 hours.
Following incubation, 100 μL per well Promega Nano -Glo HiBiT lytic detection reagent mix (Promega Nano -Glo HiBiT Lytic Detection System #N3050), prepared according to the manufacturer´s instructions in the kit, were added. The plates were incubated on an orbital shaker for 10 min. Luminescence was measured using plate reader (BMG L abtech PHERA star).

The test system of data set [3] is BRD4 long and short. Description: Western blot of BRD4 degradation. The class given is cell-based. Here is the method: Figure 2 Representative Western blot of 7a degradation of BRD4 performed in HEK293 cell line after 18 h treatment. The experiment was done as n = 3 independent biological replicates.
The best analogue, 7a, was next shown, by Western blot, to degrade both BRD4 long and short in the 300–1000 nM range, reversed by the addition of either proteasome or neddylation inhibitors or by thalidomide.
Cell culture. HEK293 CRISPR HIBIT BRD4 cells were generated at CeTPD using CRISPR -CAS technology. Parental HEK293 and HEK293 CRISPR HIBIT BRD4 cell lines were cultured in DMEM media (Gibco), supplemented with 10% fetal bovine serum (FBS), and were kept at 37 °C, 5% CO2 in a humidiﬁed incubator.
BRD4 Degradation A ssays used a HiBiT Lytic assay. […]
as §1, §2, §3
Background: Immunoblotting shows a protein as a band on a membrane.

Data set [4] is described as follows: Microsomal stability (HLM). The class given is in vitro ADME. To be noted: human, human liver microsomes. An excerpt:
(§4) Moreover, the solubility of both final compounds was low (5% PBS buffer, saline). These examples were merely chosen to showcase the synthetic potential of the chemistry rather than a medicinal chemistry-focused PROTAC optimization approach for which scope remains to optimize PK properties in future heterofunctional molecules. For example, the alkyne functionality, present in the A^3 products 2a and 2c, although present in a number of marketed, bioactive molecules,[37] even PROTACs,[38] acting as a rigid hydrophobic spacer, can be reduced by catalytic hydrogenation[39] to afford a saturated, more flexible yet possibly less metabolically labile linker.

Data set [5] in a line: Bidirectional permeability (Papp A-B, B-A). The class given is in vitro ADME. Conditions: for A-B Permeability: class in words; for Papp A→B / Papp B→A: not told; for Papp A→B: A-B direction; for Papp B→A: B-A direction. An excerpt:
(§5) Figure S3 . PK data for 7a and 7c.
(§6) (2 pictures or pasted objects on this page, not shown here)

The test system of data set [6] is P-gp. As to the kind of experiment: Bidirectional permeability (Papp A-B, B-A). The class given is in vitro ADME. Conditions: not told.
Description: as §5, §6

The target of data set [7] is P-gp (Homo sapiens, UniProt P08183). As to the kind of experiment: P-gp substrate classification from efflux ratio. The class given is in vitro ADME.
Description: as §5, §6

Data set [8] is described as follows: Solubility. The class given is physicochemical. Conditions: for solubility: 5% PBS buffer, saline; for solubility (qualitative remark): visual or general observation.
Description: as §4

Chain of CRBN-DDB1 (cereblon DNA damage-binding protein 1 complex) (Q96SW2 whole entry): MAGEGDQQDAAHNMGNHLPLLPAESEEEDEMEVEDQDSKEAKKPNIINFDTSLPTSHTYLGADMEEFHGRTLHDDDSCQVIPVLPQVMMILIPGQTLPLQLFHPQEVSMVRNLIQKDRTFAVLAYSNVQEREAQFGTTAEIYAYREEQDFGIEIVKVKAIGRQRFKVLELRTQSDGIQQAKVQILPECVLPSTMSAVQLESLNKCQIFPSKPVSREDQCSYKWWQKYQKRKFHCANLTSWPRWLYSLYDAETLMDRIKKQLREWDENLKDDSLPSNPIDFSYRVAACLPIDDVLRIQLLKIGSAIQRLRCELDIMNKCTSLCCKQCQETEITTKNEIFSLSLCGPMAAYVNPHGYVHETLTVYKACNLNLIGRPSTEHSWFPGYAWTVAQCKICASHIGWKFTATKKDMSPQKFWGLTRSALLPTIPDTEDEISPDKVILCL
Chain of CRBN-DDB1 (cereblon DNA damage-binding protein 1 complex) (Q16531 whole entry partner): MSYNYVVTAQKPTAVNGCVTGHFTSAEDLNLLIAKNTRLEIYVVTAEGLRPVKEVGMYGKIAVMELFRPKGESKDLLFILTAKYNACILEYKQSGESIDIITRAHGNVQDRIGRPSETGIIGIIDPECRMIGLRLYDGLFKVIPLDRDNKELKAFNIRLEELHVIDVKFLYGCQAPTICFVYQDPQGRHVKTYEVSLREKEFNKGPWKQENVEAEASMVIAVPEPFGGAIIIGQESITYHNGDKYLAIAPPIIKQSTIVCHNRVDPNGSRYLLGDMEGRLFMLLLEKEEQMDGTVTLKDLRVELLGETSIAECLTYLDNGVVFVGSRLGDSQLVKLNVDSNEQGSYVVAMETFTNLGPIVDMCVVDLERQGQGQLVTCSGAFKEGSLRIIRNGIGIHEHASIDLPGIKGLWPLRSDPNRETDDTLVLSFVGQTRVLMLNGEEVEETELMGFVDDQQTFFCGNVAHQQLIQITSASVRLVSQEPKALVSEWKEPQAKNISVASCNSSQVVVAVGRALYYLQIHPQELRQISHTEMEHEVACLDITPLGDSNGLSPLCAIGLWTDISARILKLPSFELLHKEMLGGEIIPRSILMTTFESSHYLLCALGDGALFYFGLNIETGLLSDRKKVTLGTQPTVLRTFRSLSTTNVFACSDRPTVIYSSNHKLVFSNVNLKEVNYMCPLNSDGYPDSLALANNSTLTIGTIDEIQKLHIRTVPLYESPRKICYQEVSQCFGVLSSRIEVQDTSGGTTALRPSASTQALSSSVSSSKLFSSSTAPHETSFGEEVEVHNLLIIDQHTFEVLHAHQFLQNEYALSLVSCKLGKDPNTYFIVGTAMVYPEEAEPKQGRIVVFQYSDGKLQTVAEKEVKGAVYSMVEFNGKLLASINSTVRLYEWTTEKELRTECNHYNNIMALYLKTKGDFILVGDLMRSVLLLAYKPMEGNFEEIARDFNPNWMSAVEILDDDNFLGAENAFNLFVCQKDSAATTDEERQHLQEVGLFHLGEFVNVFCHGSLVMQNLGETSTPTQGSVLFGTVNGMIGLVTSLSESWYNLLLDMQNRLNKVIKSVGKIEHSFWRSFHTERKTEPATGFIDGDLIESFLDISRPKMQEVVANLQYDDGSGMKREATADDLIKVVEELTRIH
Chain of P-gp (Homo sapiens, UniProt P08183) (P08183 whole entry): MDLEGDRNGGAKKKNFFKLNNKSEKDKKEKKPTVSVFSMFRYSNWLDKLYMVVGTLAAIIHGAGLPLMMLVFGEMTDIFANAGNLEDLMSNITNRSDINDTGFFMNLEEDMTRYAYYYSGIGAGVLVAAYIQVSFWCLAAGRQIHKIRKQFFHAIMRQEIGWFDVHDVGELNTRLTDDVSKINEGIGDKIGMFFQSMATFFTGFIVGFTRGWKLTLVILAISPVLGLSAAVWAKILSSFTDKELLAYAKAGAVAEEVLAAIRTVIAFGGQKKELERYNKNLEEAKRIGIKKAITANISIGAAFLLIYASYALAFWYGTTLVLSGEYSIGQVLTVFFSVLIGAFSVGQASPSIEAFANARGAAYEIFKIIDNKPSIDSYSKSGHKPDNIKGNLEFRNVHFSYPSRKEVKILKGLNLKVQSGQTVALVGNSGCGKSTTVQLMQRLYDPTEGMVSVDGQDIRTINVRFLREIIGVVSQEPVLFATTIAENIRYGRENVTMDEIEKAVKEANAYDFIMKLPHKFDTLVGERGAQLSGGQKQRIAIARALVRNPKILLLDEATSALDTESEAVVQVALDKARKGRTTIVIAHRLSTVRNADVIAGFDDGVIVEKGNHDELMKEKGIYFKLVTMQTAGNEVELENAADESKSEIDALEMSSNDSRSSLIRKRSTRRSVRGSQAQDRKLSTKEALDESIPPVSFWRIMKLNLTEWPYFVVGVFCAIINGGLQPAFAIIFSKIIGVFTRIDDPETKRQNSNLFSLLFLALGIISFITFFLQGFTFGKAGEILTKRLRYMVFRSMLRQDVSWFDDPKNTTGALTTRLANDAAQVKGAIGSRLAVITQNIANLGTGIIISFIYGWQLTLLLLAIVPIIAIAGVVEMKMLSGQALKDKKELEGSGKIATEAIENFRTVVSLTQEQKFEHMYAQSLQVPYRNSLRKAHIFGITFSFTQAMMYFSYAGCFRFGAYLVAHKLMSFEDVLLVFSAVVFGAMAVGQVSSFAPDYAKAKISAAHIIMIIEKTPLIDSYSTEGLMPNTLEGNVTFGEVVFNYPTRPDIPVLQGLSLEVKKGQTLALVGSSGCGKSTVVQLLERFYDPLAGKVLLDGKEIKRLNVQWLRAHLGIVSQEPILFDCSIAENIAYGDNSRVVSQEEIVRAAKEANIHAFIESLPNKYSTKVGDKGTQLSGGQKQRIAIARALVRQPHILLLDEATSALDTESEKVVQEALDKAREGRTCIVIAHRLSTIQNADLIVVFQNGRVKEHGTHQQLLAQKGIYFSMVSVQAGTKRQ

Consider `CC1=CC(C)=[N+]2C1=C(CCC(=O)N1CCN(C(C#CCCO)C3CCC(NC(=O)CCOCCOCCNC(=O)c4ccc5c(c4)C(=O)N(C4CCC(=O)NC4=O)C5=O)CC3)CC1)c1c(C)cc(C)n1[B-]2(F)F` (stereo not shown) [Compound 4c], for which the Kd in data set [1] turned out to be 166 ± 3.5 nM.
In the case of `Cc1sc2c(c1C)C(c1ccc(Cl)cc1)=N[C@@H](CC(=O)NCCNC(=O)c1ccc(SCCC#CC(C3CCOCC3)N3CCC(NC(=O)COc4cccc5c4C(=O)N(C4CCC(=O)NC4=O)C5=O)CC3)cc1)c1nnc(C)n1-2` (stereo partly shown) [Compound 7a], the DC50 in data set [2] (18 h after dosage) is 89.4 nM. The “degradation on addition of proteasome or neddylation inhibitors or thalidomide” value in data set [3] (10 µM 7a with 10 µM MG132, MLN4924 or thalidomide, 18 h) is recorded as “reversed”. The “concentration range degrading BRD4 long and short” value in data set [3] (HEK293 cell line, 18 h treatment) lay within 300 to 1000 nM. Further, in data set [4], the half-life at 1 h turned out to be 6.64 min and the microsomal CLint was 209 µL/min/mg. In addition, in data set [5], the “A-B Permeability” value is “low permeability and Low”; the Papp A→B stood at 0.007 ×10⁻⁶ cm/s; the Papp B→A was 0.01 ×10⁻⁶ cm/s. In data set [6], the efflux ratio amounted to 1.4. Further, the “P-gp Substrate” value in data set [7] is reported as “Not-Substrate”. In data set [8], the solubility result is “low solubility”.
Turning to `Cc1ncsc1-c1ccc(CNC(=O)[C@@H]2C[C@@H](O)CN2C(=O)[C@@H](NC(=O)CCCCC(=O)NC2CCN(C(C#CCCSc3ccc(C(=O)NCCNC(=O)C[C@@H]4N=C(c5ccc(Cl)cc5)c5c(sc(C)c5C)-n5c(C)nnc54)cc3)C3CCOCC3)CC2)C(C)(C)C)cc1` (stereo partly shown) [Compound 7b], the DC50 in data set [2] (18 h) is over 1000 nM. Further, the “solubility (qualitative remark)” value in data set [8] is “poor solubility; also recorded: visibly poorly soluble”.
In data set [2] (18 h), `Cc1sc2c(c1C)C(c1ccc(Cl)cc1)=N[C@@H](CC(=O)NCC#CC(C1CCN(C(=O)COc3cccc4c3C(=O)N(C3CCC(=O)NC3=O)C4=O)CC1)N1CCN(C(=O)COc3cccc4c3C(=O)N(C3CCC(=O)NC3=O)C4=O)CC1)c1nnc(C)n1-2` (stereo partly shown) [Compound 7c] displayed a DC50 of over 1000 nM. Moreover, in data set [4], the half-life at 1 h worked out at 17.5 min and the microsomal CLint came to 79.1 µL/min/mg. Moreover, in data set [5], the “A-B Permeability” value was “low permeability and Low”; the apparent permeability from apical to basolateral (Papp A→B) is under 0.1 ×10⁻⁶ cm/s; the Papp B→A was under 0.1 ×10⁻⁶ cm/s. In data set [8], the solubility result was “low solubility” and the “solubility (qualitative remark)” value is “poor solubility”.

One may read the Kd as the equilibrium constant for the complex coming apart. What is called DC50 is the concentration at which degradation of the target reaches its halfway point. Read a high DC50 as a less potent degrader. For orientation: half-life means how long it takes for the measured level to halve. Higher therefore signals slow loss. For orientation: microsomal CLint means a measure of how fast metabolising enzymes remove a compound, apart from limits set by blood flow. What is called Papp A→B is the apparent permeability from the apical to the basolateral side of a cell layer. The term Papp B→A denotes the apparent permeability from the basolateral to the apical side of a cell layer. The term efflux ratio denotes the permeability from basolateral to apical divided by that in the opposite direction, in the common usage.

(Values after PMC11831382, “Use of Aldehyde–Alkyne–Amine Couplings to Generate Medicinal Chemistry-Relevant Linkers” (ACS Medicinal Chemistry Letters, 2025).)
